Reference: patent publication US20230087609A1, “USE OF A SOLUBLE GUANYLATE CYCLASE (sGC) STIMULATOR OR OF A COMBINATION OF A sGC STIMULATOR AND AN sGC ACTIVATOR FOR CONDITIONS WHEREIN THE HEME GROUP OF sGC IS OXIDIZED OR WHEREIN sGC IS DEFICIENT IN HEME” (Universiteit Maastricht, priority 2020, published 2023)
“Also recorded” adds a separate entry of the source.

Target: T1, human sGCa1 and mutant sGCβ1H105F (apo-sGC) in Sf9 cells (Homo sapiens, UniProt Q02153, H105F)
T1 construct: His tag; expressed in transfected cells; host or cells: Sf9 cells co-infected with baculoviruses
T1 sequence (Q02153 1-619 H105F): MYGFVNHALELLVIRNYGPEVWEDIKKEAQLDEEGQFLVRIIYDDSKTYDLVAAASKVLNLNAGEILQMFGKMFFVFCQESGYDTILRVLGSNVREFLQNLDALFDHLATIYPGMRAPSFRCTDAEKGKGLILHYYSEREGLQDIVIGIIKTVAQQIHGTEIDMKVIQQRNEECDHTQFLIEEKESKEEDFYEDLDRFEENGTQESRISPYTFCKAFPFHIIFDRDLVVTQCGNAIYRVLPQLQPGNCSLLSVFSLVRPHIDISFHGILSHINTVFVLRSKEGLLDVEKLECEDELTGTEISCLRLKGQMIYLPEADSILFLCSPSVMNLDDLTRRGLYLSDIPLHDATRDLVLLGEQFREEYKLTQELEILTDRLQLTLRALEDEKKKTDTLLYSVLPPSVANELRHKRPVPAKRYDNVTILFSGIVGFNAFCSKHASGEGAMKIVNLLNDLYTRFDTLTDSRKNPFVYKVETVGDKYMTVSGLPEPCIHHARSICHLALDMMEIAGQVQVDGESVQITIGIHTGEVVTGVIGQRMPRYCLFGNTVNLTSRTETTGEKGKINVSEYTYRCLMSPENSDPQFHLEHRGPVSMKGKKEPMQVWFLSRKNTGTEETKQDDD
T1 sequence (Q02108 1-690 partner): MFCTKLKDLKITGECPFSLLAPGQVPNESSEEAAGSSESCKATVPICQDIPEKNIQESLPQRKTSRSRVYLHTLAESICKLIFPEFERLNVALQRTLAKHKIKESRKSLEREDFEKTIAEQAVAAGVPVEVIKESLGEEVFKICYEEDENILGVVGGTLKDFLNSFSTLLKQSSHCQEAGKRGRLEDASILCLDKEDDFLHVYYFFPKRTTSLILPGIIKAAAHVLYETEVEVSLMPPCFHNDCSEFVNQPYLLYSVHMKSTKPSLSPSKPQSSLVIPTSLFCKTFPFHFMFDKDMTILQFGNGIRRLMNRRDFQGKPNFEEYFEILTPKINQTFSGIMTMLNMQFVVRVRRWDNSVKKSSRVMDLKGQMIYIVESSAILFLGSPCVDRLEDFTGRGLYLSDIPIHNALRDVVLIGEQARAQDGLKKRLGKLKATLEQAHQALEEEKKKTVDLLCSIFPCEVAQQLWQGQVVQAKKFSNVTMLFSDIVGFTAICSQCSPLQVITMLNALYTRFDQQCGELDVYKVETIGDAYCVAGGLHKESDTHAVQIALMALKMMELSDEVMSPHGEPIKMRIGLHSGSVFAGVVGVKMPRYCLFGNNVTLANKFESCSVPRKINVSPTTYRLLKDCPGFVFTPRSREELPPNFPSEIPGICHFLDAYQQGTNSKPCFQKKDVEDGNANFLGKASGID
Experiment: cGMP accumulation in intact Sf9 cells expressing apo-sGC
Format: cell-based
Settings: 10 micromole/L DETA-NONOate alone (FIG. 12A)
Experimental: Sf9 cells were co-infected with baculoviruses expressing human sGCa1 and mutant sGCβ1H105F. Forty-eight hours post-infection, the cells were treated with vehicle, NO donor, sGC stimulator, sGC activator or combination in 2 ml final volume of 10^6 cells per ml then the cells were incubated for 10 min at 27° C. The reaction was terminated by the addition of 0.1M of HCl, and cGMP was extracted on ice for 20 min. Cells were then sonicated to ensure complete lysis. The extract was then centrifuged and used for cGMP determination by an ELISA (Enzo Life Sciences).
Forty-eight hours post-infection, the cells were treated with vehicle, NO donor, sGC stimulator, sGC activator or combination in 2 ml final volume of 10^6 cells per ml and subsequently, the cells were incubated for 10 minutes at 27° C. The reaction was terminated by the addition of 0.1M of HCl, and cGMP was extracted on ice for 20 minutes. Cells were then sonicated to ensure complete lysis. The obtained cell extract was then centrifuged and used for cGMP determination by an ELISA. […] In the absence of any of the NO donor, the sGCs or the combination of these compounds, no cGMP synthesis is detected. It is now for the first time shown by the inventors that apo-sGC is still activatable even in the absence of an sGC activator known in the art. The presence of the sGCs facilitates NO binding to a secondary, heme-independent NO binding-site, and in addition, presence of an NO donor acts synergistically, when cGMP production is considered. Due to the invention, it is now made possible to treat patients with an sGCs, resulting in cGMP formation, under conditions wherein treatment with sGC activators has no effect at all or a too small effect, e.g. under conditions of ischemia, neonatal asphyxia, stroke, hypoxia, acute respiratory distress syndrome, asthma, oxidative (organ and/or tissue and/or cell) damage, etc. The invention provides a new treatment modality for these patients, which are often not sensitive (enough) for sGCa treatment. […] C.

NCCN(CCN)/[N+]([O-])=N/O [DETA-NONOate]
cGMP formation, NO donor only: hardly produced any cGMP; also recorded: no effect on cGMP formation
